Source: patent US20200317716A1, “PREPARATION OF BILE ACIDS AND INTERMEDIATES THEREOF” (ALLERGAN SALES, LLC, priority 2008, published 2020)

System: Primary human adipocytes
Experiment: MTS cell viability assay on primary human adipocytes
Assay type: cell-based
Details: 0.005%-0.1% bile acid in serum-free media, incubated for 1 hour at 37° C., MTS read at 490 nm, FIG. 1
Procedure: Primary human adipocytes were incubated with varying concentrations of synthetic sodium deoxycholate synthesized using 9-HAD as starting material or bovine-derived sodium deoxycholate obtained from Sigma as described below.
96 well plates (US Scientific cat # cellstar no. 655180) Serum-free RPMI medium (Mediatech cat #17-105-CV) Sodium deoxycholate (DC) (Sigma cat # D6750) Synthetic Sodium glycodeoxycholate (Kythera)
Adipocytes arrived differentiated and at a density of 13,000 cells per well in a 96 well plate. Two plates were received and each treated with the same samples. Cells were incubated for 24 hours at 37° C. with 5% CO2. A 1% stock solution of each bile acid (synthetic and non-synthetic DCA) were made by dissolving 20 mg into 2 mL media (serum-free). Using the 1% stock solution, the following 11 solutions were prepared by dilution: 0.005%, 0.01%, 0.015%, 0.02%, 0.025%, 0.03%, 0.035%, 0.04%, 0.05%, 0.06%, and 0.1%, as well as 0% (media only).
Cells were washed 2× with 150 μL of room temperature 1×PBS (phosphate buffered saline). Media and then PBS were removed from the wells in a 96 well plate by turning the plate upside down and decanting the liquid into a container. After the last PBS wash, 80 μL of sample was added per well. […]
Cell viability was assessed using a colorimetric assay (MTS) kit from Promega.

| Compound | cell survival |
| --- | --- |
| sodium deoxycholate [syn-NaDC] | dose-dependent decrease in cell survival |

System: not given
Experiment: not given
Details: not given

| melting point [°C] | Compound |
| --- | --- |
| 114 to 116 | COC(=O)/C=C/[C@@H](C)C1=CC[C@H]2[C@@H]3CC[C@@H]4C[C@H](OC(C)=O)CC[C@]4(C)C3=CC[C@]12C |
| 93.9 to 97.8 | C/C=C1/CC[C@H]2[C@@H]3CC[C@@H]4C[C@H](OC(C)=O)CC[C@]4(C)C3=CC[C@]12C |
| 122.1 to 123.9 | COC(=O)CC[C@@H](C)[C@H]1CC[C@H]2[C@@H]3CC[C@@H]4C[C@H](OC(C)=O)CC[C@]4(C)C3=CC[C@]12C |
| 213 to 216 | C[C@]12CCC(=O)C[C@H]1CC[C@H]1[C@@H]3CCC(=O)[C@@]3(C)CC[C@@]12O |
| 104.2 to 107.7 | COC(=O)CC[C@@H](C)[C@H]1CC[C@H]2[C@@H]3CC[C@@H]4C[C@H](OC(C)=O)CC[C@]4(C)[C@H]3C[C@H](O)[C@]12C |
| 142.2 to 144.4 | COC(=O)CC[C@@H](C)[C@H]1CC[C@H]2[C@@H]3CC[C@@H]4C[C@H](OC(C)=O)CC[C@]4(C)[C@H]3CC(=O)[C@]12C |
| 146 to 147.3 | C/C=C1/CC[C@H]2[C@@H]3CC[C@@H]4C[C@H](O)CC[C@]4(C)C3=CC[C@]12C |
